{
  "source": "patent US20250101102A1",
  "about": "“BISPECIFIC ANTIBODY AGAINST CD3 AND CD20 IN COMBINATION THERAPY FOR TREATING DIFFUSE LARGE B-CELL LYMPHOMA” (GENMAB A/S, priority 2022, published 2025)",
  "key": {"T cells": {"tested_on": "T cells", "assay": "T cell viability after pretreatment with CHP components", "format": "cell-based"}, "[1]": {"tested_on": "CD20-expressing Raji-luc tumor cells", "settings": "NOD-SCID mice injected with Raji-luc tumor cells and PBMCs; even in the presence of an excess of IgG1-RTX-FEAR; cited from earlier work"}, "[2]": {"tested_on": "primary DLBCL and follicular lymphoma patient biopsies", "settings": "cited from earlier work"}, "[3]": {"tested_on": "CD20-expressing Daudi cells", "settings": "333 ng/ml DuoBody-CD3xCD20, 4 donors", "method": "Briefly, T cells were pre-incubated with cyclophosphamide, doxorubicin, or prednisone for 16 hours and subsequently used in a cytotoxicity assay with epcoritamab and CD20-expressing Daudi cells as target cells (E: T ratio 2:1), in which cyclophosphamide, doxorubicin, or prednisone was added in the same concentration as during pre-incubation, respectively. Data are presented as percent viable target cells (CD4-CD8-CD22+), normalized to medium control (no Ab, no CHP component)."}, "[4]": {"tested_on": "relapsed or refractory (R/R) B-NHL; highly refractory large B-cell lymphoma", "settings": "cited from earlier work"}, "[5]": {"settings": "T cells pre-incubated for 16 hours"}, "[6]": {"settings": "highly refractory large B-cell lymphoma, n=157"}},
  "note": "Read-outs that look alike come from different tables or passages of the source.",
  "data": [
    {"compound": "O=P1(N(CCCl)CCCl)NCCCO1", "note": "(centres unmarked) [cyclophosphamide, 2H-1,3,2-Oxazaphosphorin-2-amine, N,N-bis(2-chloroethyl)tetrahydro-, 2-oxide]", "values": [
      {"measurement": "T cell viability after pretreatment", "setting": "T cells", "result": "did not impact T cell viability"}
    ]},
    {"compound": "COc1cccc2c1C(=O)c1c(O)c3c(c(O)c1C2=O)C[C@@](O)(C(=O)CO)C[C@@H]3O[C@H]1C[C@H](N)[C@H](O)[C@H](C)O1", "note": "[doxorubicin]", "values": [
      {"measurement": "T cell viability after pretreatment", "setting": "T cells; [5]", "result": "reduction in T cell viability"}
    ]},
    {"compound": "C[C@]12C=CC(=O)C=C1CC[C@@H]1[C@@H]2C(=O)C[C@@]2(C)[C@H]1CC[C@]2(O)C(=O)CO", "note": "[prednisone, 17,21-dihydroxypregna-1,4-diene-3,11,20-trione]", "values": [
      {"measurement": "T cell viability after pretreatment", "setting": "T cells; [5]", "result": "did not impact T cell viability"}
    ]},
    {"compound": "epcoritamab: IgG1 bispecific CD3×CD20 antibody; heavy and light chain pairs SEQ ID NOs: 24/25 (CD3ε arm) and 26/27 (CD20 arm); CAS 2134641-34-0", "values": [
      {"measurement": "tumor growth in the xenograft model", "setting": "[1]", "result": "effectively reduce tumor growth"},
      {"measurement": "T-cell-mediated cytotoxicity", "setting": "[2]", "result": "induced T-cell-mediated cytotoxicity"},
      {"measurement": "viable B cells left after incubation", "setting": "[3]; T cells pretreated with cyclophosphamide, FIG. 1A right panel", "result": "very low percentages of viable B cells"},
      {"measurement": "viable B cells left after incubation", "setting": "[3]; T cells pretreated with prednisone, FIG. 1C right panel", "result": "very low percentages of viable B cells"},
      {"measurement": "complete response (CR) rate", "setting": "[4]; [6]", "result": 39, "unit": "%"},
      {"measurement": "median duration of response (DOR)", "setting": "[4]; [6]", "result": 12, "unit": "months"},
      {"measurement": "overall response rate (ORR)", "setting": "[4]; [6]", "result": 63, "unit": "%"},
      {"measurement": "safety profile", "setting": "[4]; in vivo", "result": "manageable safety profile"}
    ]}
  ]
}
